Measurements as given in patent US12678471B2 (priority 2022, dated 2026).
Where two headings read alike, the source gives them in different places.

Assays:
Type in all cases: cell-based
[1] = system: Omicron S protein pseudotyped lentivirus (spike protein of the SARS-CoV-2 Omicron variant); assay: microbe, parasite or virus in culture; conditions: read-out: Half inhibition concentration of viral infection (IC50) Omicron
[2] = system: D614G S protein pseudotyped lentivirus (spike protein of the SARS-CoV-2 D614G variant); conditions: read-out: Half inhibition concentration of viral infection (IC50) D614G
[3] = system: Delta S protein pseudotyped lentivirus (spike protein of the SARS-CoV-2 Delta variant); conditions: ACE2-293T cells; virus pretreated with compound 1 hour at 37° C.; 24 hours infection; mean ± SD (n = 3); read-out: Half inhibition concentration of viral infection (IC50) Delta

Compound | IC50 ([1]; Lentivirus) [nM] | IC50 [2] [nM] | IC50 [3] [nM] | IC50 [1] [nM]
COc1cc2c3cc1Oc1c(OC)c(OC)cc4c1[C@@H](Cc1ccc(O)c(c1)Oc1ccc(cc1)C[C@@H]3N(C)CC2)N(C)CC4 [Berbamine] | 2290 ± 290 |  |  | 
COc1cc2c3cc1Oc1c(O)c(OC)cc4c1[C@@H](Cc1ccc(O)c(c1)Oc1ccc(cc1)C[C@@H]3N(C)CC2)N(C)CC4 [Obamegine] | 1190 ± 160 | 1400 ± 350 |  | 
Aromoline |  |  | 470 ± 80 | 860 ± 120
Bersavine |  | 1240 ± 170 | 2860 ± 130 | 1710 ± 340
